Paper PMC4747407 (Oncotarget, 2015)

Tests used:
[1] = test system: DNA repair mutant DT40 cell lines; assay: Proliferation assay in panel of isogenic DNA repair mutant DT40 cell lines (XTT); assay type: cell-based, avian
[2] = test system: B16-F10 mouse melanoma isografts; assay: B16-F10 mouse melanoma isograft model, combination with TMZ; assay type: in vivo
Protocol: All studies were performed according to IACUC approved protocols. The general health of mice was monitored daily.
TMZ combination in B16-F10 isograft model: female C57BL/6 mice were inoculated subcutaneously with B16-F10 cells (2 × 10^5). Following randomization by body weight, drug treatment was initiated 1 day post-inoculation. […] TMZ was administered daily on days 1 to 5 at 50 mg/kg as a single agent or in combination. […] The control group was treated with vehicle (0.5% methyl cellulose in water). E7449 or vehicle was administered first and when dosing of all animals was complete TMZ was administered to animals receiving the combination.

[3] = test system: Wnt-mediated hair re-growth; assay: Re-growth of hair after depilation in C57BL/6 mice; assay type: in vivo, mouse; conditions: 30, 100 or 300 mg/kg oral once daily for 12 days
Source text: Re-growth of hair was monitored and recorded by photography.

Wnt1 model tumors = assay: Gene expression of Wnt-related genes in Wnt1 model tumors (mouse TLDA); assay type: in vivo; conditions: 7 days of drug treatment
Protocol: Gene expression profiling was performed using a custom designed TaqMan® low density array (TLDA). Total RNA was isolated from cell lines using RNeasy Mini Kit (Qiagen) and from xenograft tumor FFPE tissue using RecoverAll Total Nucleic Acid Isolation (Ambion). Human and mouse, real-time qPCR TLDAs (384-well micro fluidic card) were designed with genes selected based on their involvement in Wnt signalling (see supplementary Tables 2 and 3 for lists of genes on TLDAs). cDNA was generated from total RNA using High Capacity cDNA Reverse Transcription kit (Life Technologies) or SuperScript® VILO™ Master Mix (Life Technologies). 100 ng cDNA was combined with TaqMan® Gene Expression Master Mix (Life Technologies) for the cell lines and TaqMan® Advanced FAST Master Mix (Life Technologies) for the xenograft tissue for each port (in duplicate). TLDAs were run based on recommended cycling times for each master mix. Ct values were calculated and imported into GeneData Analyst for further analysis. To calculate the ΔCts, gene expression was normalized to several housekeeping genes. Relative fold change was calculated by comparison to the DMSO or vehicle-treated controls for each sample. A student's t-test was used to calculate P-values and hierarchical clustering used Manhattan distance and complete linkage plotting of selected significant genes to generate heat maps.

[4] = set-up: method as in PMID 22246237; conditions: cited from earlier work
[5] = small phase 1 study; cited from earlier work
[6] = E7449 10, 30, 100 mg/kg + TMZ 50 mg/kg

O=c1[nH]nc2c3c(cccc13)N=C(CN1Cc3ccccc3C1)N2 [E7449, 8-(isoindolin-2-ylmethyl)-2,9-dihydro-3H-pyridazino[3,4,5-de]quinazolin-3-one]
sensitivity of cell lines deficient in NHEJ repair ([1]; KU70, PKCS, LIGIV deficient DT40): Resistance | effect of loss of POLQ on sensitivity ([1]; POLQ deficient DT40): no effect | sensitivity of DT40 cells lacking PARP expression ([1]; versus wild type DT40): significantly resistant | growth of subcutaneous tumors, single agent ([2]; E7449 100 mg/kg or TMZ 50 mg/kg, oral once daily): moderately inhibited | animal lethality, combination with TMZ [2, 6]: No animal lethality occurred | body weight, combination with TMZ [2, 6]: body weight loss was observed in all 3 combination groups | tumor growth inhibition, combination with TMZ ([2]; E7449 10, 30 and 100 mg/kg + TMZ 50 mg/kg, oral): significantly enhanced tumor growth inhibition | hair re-growth [3]: significantly delayed | expression of Wnt-related genes CAR2, FZD9, LEF1, VIL1 in tumors (Wnt1 model tumors): also altered in tumors from E7449-treated mice, albeit to a lesser extent | brain penetration [4]: brain penetrable | oral bioavailability [4]: orally bioavailable | dose-limiting toxicity [5]: fatigue | tolerability in cancer patients [5]: generally well tolerated
